# Assay results: paper PMC12775823, “Glucosylceramide regulates depression through activating peroxisome proliferator-activated receptor gamma in dorsal striatum” (Theranostics, 2026)
# Experiments:
# [1] = LC-MS of GlcCer levels in dorsal striatum of CRS-induced mice; type: in vivo; settings: intra-dorsal striatum infusion of pioglitazone, GlcCer or combination
# Method: The procedure for the extraction of sphingolipids was established according to the LIPID MAPS protocol with modifications. Briefly, dorsal striatal tissues were added 0.5 mL of MeOH, 0.25 mL of CHCl3 and 7.5 μL of internal standards cocktail (2.5 μM). For sphingolipidomics, 5 μL of internal standards mixture (LM6002, Avanti polar lipids) was added. The mixture was then ultrasonicated for 45 s at room temperature and incubation at 48°C overnight. To avoid potentially interfering glycerolipids, 75 μL of KOH in MeOH (1M) was added, followed by incubation in a heat block at 200 rpm for 2 h at 37 °C. After neutralization, a four-step extraction process was performed to obtain SPL extract for analysis. The supernatant was transferred to a new Eppendorf tube and the resides were added l mL of MeOH and 2 mL of CHCl3, followed by centrifugation at 3800 rpm for 8 min. […] Sphingolipidomics were measured with ultra-high-performance liquid chromatography (UPLC) coupled with hybrid Quadrupole-Orbitrap high resolution mass spectrometry (Q-Exactive-HRMS). […] For […] quantitation, brain tissues were quantified by UPLC-MS/MS using a Q-Exactive-HRMS with UPLC. […] Quantification of […] with various fatty acid chain lengths were achieved using the calibration curve of each GlcCer species with closest number of chain length. […]
# human PPARγ-LBD = experiment: Surface plasmon resonance, PPARγ LBD; settings: Figure S7B, C
# Method: Prepared human PPARγ-LBD and human PPARγ-full length (Active Motif, USA) were immobilized onto a CM5 sensor chip using amine coupling. Briefly, the protein was diluted to 50 μg/mL in immobilization buffer and covalently attached to the CM5 chip via an Amine Coupling Kit (Cytiva, USA), following the manufacturer's instructions. A channel without immobilized protein was used as a blank control. […] Gradient concentrations of GlcCer were injected over both channels at a flow rate of 30 μL/min, with an association time and dissociation time of 85 s each.
# D2-Pparg^f/f mice = experiment: Behavioral tests in D2-Pparg f/f mice after intra-dorsal striatal microinfusion; type: in vivo; settings: microinfusion of GlcCer
# Method: For intracranial injection, mice were surgically implanted with sterilized guide cannulae in dorsal striatum. Intra-dorsal striatal injection of PDMP (100 μM, 1 μL/injection), pioglitazone (100 μM, 1 μL/injection), UNC (10 μM, 1 μL/injection) was performed 30 min before behavioral test. Mice were intraperitoneally injected with CNO (1 mg/kg/d) before behavioral test.
# Elevated plus maze test (EPMT).
# Light-dark Transition test (LDT).
# Sucrose preference test (SPT).
# Forced swimming test (FST).
# PPARγ-LBD = tested on: T1, PPARγ-LBD; experiment: Bio-layer interferometry, PPARγ LBD; type: binding, human; settings: biolayer interferometry, Figure S7D, E
# T1 construct: human PPARγ-LBD (residues 223-505); 6xHis; made in house; host or cells: E. coli BL21 (DE3)
# Method: The bio-layer interferometry assay was performed at 30 °C on the Octet RED96 System (ForteBio, USA) with PBS as the running buffer. Purified PPARγ-LBD were biotinylated using the EZ-Link Sulfo-NHS-LC-Biotinylation Kit (Thermo Fisher Scientific, USA) according to the manufacturer's instructions. The biotinylated PPARγ was then immobilized onto SSA Biosensors (ForteBio, USA), pre-equilibrated in the running buffer. The biosensors were incubated with various concentrations of the GlcCer or pioglitazone, followed by dissociation. The data were analyzed and the binding parameters were determined using the software supplied by the manufacturer.
# PPARγ [2] = tested on: T2, PPARγ; experiment: PPARγ transcription activity assay (PPRE binding), N2a cells; type: cell-based
# T2 construct: endogenous in cells; host or cells: N2a cells (nuclear extract)
# Method: (§1) Nuclear extracts were prepared from N2a cells using a nuclear extraction kit according to the manufacturer protocol. The binding reaction between PPARγ and PPRE was carried out at 4°C for 16 h using 3 μg of nuclear extracts. The binding activity between PPARγ and PPRE was indicated by the change of optical density (OD) at 405 nm, and an enzyme reaction was measured by HRP-conjugated antibody in complex of PPRE/ PPARγ/antibody.
# PPARγ [3] = tested on: T3, PPARγ; experiment: PPARγ mRNA, protein and transcriptional activity in dorsal striatum of CRS-induced mice; type: in vivo; settings: intra-dorsal striatum pioglitazone, GlcCer or combination
# T3 construct: from tissue; host or cells: mouse dorsal striatum
# Description: Dorsal striatal tissues were processed in accordance with the RNA isolation kit's instructions (RC102/RC112; Vazyme Biotech Co.,Ltd), mRNA was reverse transcribed using HiScript® III All-in-one RT SuperMix (Vazyme Biotech Co.,Ltd), and cDNA was amplified using SYBR Green (Vazyme Biotech Co.,Ltd). The 2^-ΔΔCt method was used to analyze gene expression, and the relative level of the target gene was normalized to Gapdh. The primer sequences can be found in Supplemental materials Table S1.
# Brain tissues were cut into small pieces and then centrifuged at 13,000 g for 15 min at 4 °C. Supernatants were collected, and proteins concentrations were determined by BCA assay. Samples were denatured at 95 °C for 5 min and subsequently stored at -80 °C for further use. Protein samples were loaded onto 10% SDS-PAGE and transferred on PVDF membranes. After being blocked with 5% nonfat dry milk in Tris-buffered saline with 0.1% Tween-20 for 1.5 h, the PVDF membranes were incubated with corresponding primary antibodies overnight at 4 °C. Membranes were then incubated with HRP-conjugated secondary antibodies for 1 h at room temperature and measured with chemiluminescence imaging system (ChemiScope; Clinx, China).
# as §1
# human PPARγ AF1 domain = target: T4, human PPARγ AF1 domain (Homo sapiens, UniProt P37231); experiment: Surface plasmon resonance, PPARγ AF1 domain; type: binding; settings: SPR
# T4 sequence (P37231 31-135 limits assumed): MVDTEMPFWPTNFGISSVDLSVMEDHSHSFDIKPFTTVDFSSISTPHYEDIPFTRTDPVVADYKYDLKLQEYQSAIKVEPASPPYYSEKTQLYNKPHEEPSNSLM
# PPARγ [4] = tested on: T3, PPARγ; experiment: Lipid-protein pull down assay, dorsal striatum lysate; type: binding; settings: GlcCer-beads, dorsal striatum of mice
# Method: Dorsal striatal tissues were cut into small pieces and then centrifuged at 13,000 g for 15 min at 4 °C. Supernatants were collected, and protein concentrations were determined using BCA assay. GlcCer-beads were equilibrated by washing them three times with ice-cold PBS. The clarified cell lysate was added to the equilibrated beads, then the mixture was incubated on a rotator at 4 °C for overnight, use approximately 500 µg of total protein per reaction. After incubation, the beads were washed three times with ice-cold PBS. Following the final wash, the beads were resuspended in SDS-PAGE sample buffer and heat at 95°C for 5 min to elute the bound proteins. The eluted sample was used to western blotting analysis.
substance,measurement,setting,value
Glucosylceramide [GlcCer],GlcCer levels in the dorsal striatum (LC-MS),[1],increased
same,binding affinity for the LBD (SPR),human PPARγ-LBD,minimal binding affinity
same,depression-like behaviors,D2-Pparg^f/f mice,failed to alleviate
same,binding affinity for the LBD (BLI),PPARγ-LBD,minimal binding affinity
same,PPARγ transcriptional (DNA binding) activity in N2a cells,"PPARγ [2]; Figure 5H, GlcCer, pioglitazone or combination",increased PPARγ transcriptional activity in a dose-dependent manner
same,"PPARγ transcriptional activity, nuclear extracts from N2a cells","PPARγ [2]; pioglitazone (100 nM), GlcCer (10 μM), or their combination, Figure S7F",significantly increased
same,PPARγ activity in the dorsal striatum,PPARγ [3],significantly enhanced
same,PPARγ mRNA or protein expression,PPARγ [3],"neither pioglitazone, GlcCer, nor their combination altered"
same,Kd,human PPARγ AF1 domain,0.029 ± 0.003 µM
same,interaction between PPARγ and GlcCer (lipid-protein binding assay),PPARγ [4],direct interaction
